According to patent publication US20040214799A1, “Cancerous metastasis inhibitors containing carbacyclic phosphatidic acid derivatives” (priority 2001, published 2004):
Several values for one entry are separate records, joined by “and”; a condition that tells them apart may be missing. Equal entries are not always repeated.

System: Mouse malignant melanoma B16-F0
Experiment: B16 melanoma hematogenous lung metastasis model; for Metastatic nodules, Abdominal cavity Adipose tissue: key: −: Absent; +: Present; for Metastatic nodules, Abdominal cavity Adrenal gland: key: −: Absent; +: Present; for Metastatic nodules, Abdominal cavity Diaphragm: key: −: Absent; +: Present; for Metastatic nodules, Abdominal cavity Kidney: key: −: Absent; +: Present; for Metastatic nodules, Abdominal cavity Ovary: key: −: Absent; +: Present; for Metastatic nodules, Abdominal cavity Spleen: key: −: Absent; +: Present; for Metastatic nodules, Thoracic cavity: key: −: Absent; +: Present; for Metastatic nodules, Tissue around glandual clitoris: key: −: Absent; +: Present
Assay type: in vivo
Conditions: for invasion of lymphocytes into metastatic lesions observed in cases: animals with metastatic lesions; for Metastatic nodules, Abdominal cavity Adipose tissue / Metastatic nodules, Abdominal cavity Adrenal gland / Metastatic nodules, Abdominal cavity Diaphragm / Metastatic nodules, Abdominal cavity Kidney / Metastatic nodules, Abdominal cavity Ovary / Metastatic nodules, Abdominal cavity Spleen / Metastatic nodules, Thoracic cavity / Metastatic nodules, Tissue around glandual clitoris: autopsy day 14, individual animals; for Number of lung tumor nodules, Range (mininum-maximum) / Number of mice having lung tumor nodules: day 14, N 6; for Number of lung tumor nodules: day 14, mean ± S.D.; for Number of lung tumor nodules / Number of mice having metastatic lesions: N 6; for Number of mice having metastatic lesions / Findings: Invasion of lymphocytes into melanoma metastatic lesion: lung histopathology; for Findings: Invasion of lymphocytes into melanoma metastatic lesion: individual animals; for Number of metastatic lesions per section, Large size: major diameter 0.65 mm ≦ and <1.3 mm; for Number of metastatic lesions per section, Large size / Number of metastatic lesions per section, Small size / Number of metastatic lesions per section, Total: mean ± S.D.; for Number of metastatic lesions per section, Small size: major diameter <0.65 mm, left lobe and posterior lobe
Protocol: cPA-19 and cPA-20 were used as test substances. 0.1 w/v % BSA/PBS which was prepared by dissolving Albumin, Bovine [essentially Fatty Acid Free] (BSA, Lot No. 89H7604, Sigma chemical company) in Ca^2+ and Mg^2+ free PBS (pH 7.2), was used as a medium After preparation, the solution was sterilized by filtration using a filter (0.22 μm, Millipore). Preparation was performed when used. cPA-5 was used as a positive control substance.
A medium was added in a volume required for a test substance or a positive control substance. Dissolution was performed by ultrasonication, thereby preparing a 0.16 mg/mL solution. The 0.16 mg/mL solution containing a test substance was diluted with a medium, thereby preparing 0.08 and 0.02 mg/mL solutions. All mixtures were prepared when used.
Mice were purchased from CHARLES RIVER JAPAN. INC. The line employed herein was C57BL/6NCrj (sexuality: female). The number of animals kept in stock was 60, and the age of these animals when kept in stock was 4 weeks. […] The environmental conditions for the test system were as follows:
Mouse malignant melanoma B16-F0 was used as a tumor cell. The cell was purchased from Dainippon Pharmaceutical Co., Ltd.
Dulbecco's Modified Eagle's Media containing 10% feral bovine serum and kanamycin were used for culture. […] A medium was added to stop the action of trypsin while pipetting, thereby preparing a cell suspension. The suspension was diluted by one-tenth with a medium for culturing, followed by subculturing until it reached a volume sufficient for grafting.
A cell suspension was prepared by the same technique as the subculture method. Specifically, the cells were washed with a Ca^2+ and Mg^2+ free phosphate buffer [PBS(−)], and then harvested. The harvested cells were suspended in a 10 mL of PBS(−), thereby preparing a cell suspension. The number of cells in the cell suspension was measured to obtain the total cell number. 50 μL of the cell suspension, 100 μL of 0.4% trypan blue liquid and 100 μL of PBS(−) were mixed, and then viable count was measured. The survival rate of the cells was calculated from the viable count and total cell number.
Based on the body weight on the day of the administration of the test substance, mice were grouped into 8 test groups according to the stratified continuous randomization method as shown in Table 2 below.
The mixture was administered via the caudal vein. The number of grafted cells was 5×10^5 cells/body. The dose of the test substance was 0.001, 0.004 or 0.008 mg/body, and the dose of the positive control substance was 0.008 mg/body.
On day 14 after the administration of the test substance, blood was collected from the posterior portion of the abdominal vena cava under isoflurane anesthesia. After the mice were sacrificed by blood-letting, the presence or absence of intrapleural and intraperitoneal metastatic nodules was confirmed. Lungs were extracted, and then fixed with a 10% neutral buffered formalin solution. The number of nodules resulting from lung metastasis was measured under a stereoscopic microscope (magnification: 10 times).
After the measurement of the number of nodules resulting from lung metastasis, samples were paraffin-embedded, and then thin sections were prepared. Hematoxylin eosinic-stained samples were prepared from these sections. The number of metastatic lesions in the certain portions of the left lobe and the posterior lobe was measured, and then the lesions were sorted by size. On the basis of the diameter (0.65 mm) of an object lens (×40), metastatic lesions with major diameters of less than 0.65 mm were classified as having a small size, and those with major diameters of between 0.65 mm or more and less than 1.30 mm were classified as having a large size. Furthermore, the degree of invasion of lymphocytes into metastatic lesions was confirmed qualitatively.
The representative value of each test group was denoted as mean±standard deviation (mean±S.D.). Differences in mean values were examined as follows.

[1] = 0.001 mg/body i.v., autopsy, 6 mice
[2] = 0.004 mg/body i.v., autopsy, 6 mice
[3] = 0.008 mg/body i.v., autopsy, 6 mice

Substance: carba-ΔPal-cPA [cPA-20]
- invasion of lymphocytes into metastatic lesions observed in cases (0.001 mg/body i.v.): 1 out of 4
- Metastatic nodules, Abdominal cavity Adipose tissue (0.001 mg/body i.v.): −
- Metastatic nodules, Abdominal cavity Adrenal gland (0.001 mg/body i.v.): −
- Metastatic nodules, Abdominal cavity Diaphragm (0.001 mg/body i.v.): − (5×) and +
- Metastatic nodules, Abdominal cavity Kidney (0.001 mg/body i.v.): −
- Metastatic nodules, Abdominal cavity Ovary (0.001 mg/body i.v.): − (5×) and +
- Metastatic nodules, Abdominal cavity Spleen (0.001 mg/body i.v.): − (5×) and +
- Metastatic nodules, Thoracic cavity (0.001 mg/body i.v.): − (5×) and +
- Metastatic nodules, Tissue around glandual clitoris (0.001 mg/body i.v.): − (5×) and +
- cases with metastatic nodules in the diaphragm [1]: 1 case
- cases with metastatic nodules in the ovary [1]: 1 cases
- cases with metastatic nodules in the spleen [1]: 1 case
- cases with metastatic nodules in the thoracic cavity [1]: 1 case
- cases with metastatic nodules in tissue around the glandual clitoris [1]: 1 case
- Number of lung tumor nodules, Range (mininum-maximum) (0.001 mg/body i.v.): 17-112
- Number of mice having lung tumor nodules (0.001 mg/body i.v.): 6
- Number of lung tumor nodules (0.001 mg/body i.v.): 58 ± 40
- Number of mice having metastatic lesions (0.001 mg/body i.v.): 4
- Findings: Invasion of lymphocytes into melanoma metastatic lesion (0.001 mg/body i.v.): − (3×) and ++
- Number of metastatic lesions per section, Large size (0.001 mg/body i.v.): 1.2 ± 1.3
- Number of metastatic lesions per section, Small size (0.001 mg/body i.v.): 3.2 ± 3.5
- Number of metastatic lesions per section, Total (0.001 mg/body i.v.): 4.3 ± 4.6
- number of metastatic nodules of B16-F0 in the lungs versus medium group (in words) (0.004 mg/body i.v.): significant decrease in the number of metastatic nodules
- invasion of lymphocytes into metastatic lesions observed in cases (0.004 mg/body i.v.): no invasions were observed in 1 case
- Metastatic nodules, Abdominal cavity Adipose tissue (0.004 mg/body i.v.): −
- Metastatic nodules, Abdominal cavity Adrenal gland (0.004 mg/body i.v.): −
- Metastatic nodules, Abdominal cavity Diaphragm (0.004 mg/body i.v.): −
- Metastatic nodules, Abdominal cavity Kidney (0.004 mg/body i.v.): −
- Metastatic nodules, Abdominal cavity Ovary (0.004 mg/body i.v.): −
- Metastatic nodules, Abdominal cavity Spleen (0.004 mg/body i.v.): − (5×) and +
- Metastatic nodules, Thoracic cavity (0.004 mg/body i.v.): −
- Metastatic nodules, Tissue around glandual clitoris (0.004 mg/body i.v.): −
- cases with metastatic nodules in the spleen [2]: 1 case
- metastatic nodules in the thoracic cavity [2]: no metastatic nodules were observed
- Number of lung tumor nodules, Range (mininum-maximum) (0.004 mg/body i.v.): 0-4
- Number of mice having lung tumor nodules (0.004 mg/body i.v.): 2 &
- Number of lung tumor nodules (0.004 mg/body i.v.): 1 ± 2
- Number of mice having metastatic lesions (0.004 mg/body i.v.): 1 &&
- Findings: Invasion of lymphocytes into melanoma metastatic lesion (0.004 mg/body i.v.): −
- Number of metastatic lesions per section, Large size (0.004 mg/body i.v.): 0 ± 0!!
- Number of metastatic lesions per section, Small size (0.004 mg/body i.v.): 0.2 ± 0.4
- Number of metastatic lesions per section, Total (0.004 mg/body i.v.): 0.2 ± 0.4!!
- metastasis / number of metastatic nodules in the lungs versus medium group (in words) (0.008 mg/body i.v.): almost completely suppressed metastasis
- Metastatic nodules, Abdominal cavity Adipose tissue (0.008 mg/body i.v.): −
- Metastatic nodules, Abdominal cavity Adrenal gland (0.008 mg/body i.v.): −
- Metastatic nodules, Abdominal cavity Diaphragm (0.008 mg/body i.v.): −
- Metastatic nodules, Abdominal cavity Kidney (0.008 mg/body i.v.): −
- Metastatic nodules, Abdominal cavity Ovary (0.008 mg/body i.v.): −
- Metastatic nodules, Abdominal cavity Spleen (0.008 mg/body i.v.): − (5×) and +
- Metastatic nodules, Thoracic cavity (0.008 mg/body i.v.): −
- Metastatic nodules, Tissue around glandual clitoris (0.008 mg/body i.v.): −
- cases with metastatic nodules in the spleen [3]: 1 case
- metastatic nodules in the thoracic cavity [3]: no metastatic nodules were observed
- Number of lung tumor nodules, Range (mininum-maximum) (0.008 mg/body i.v.): 0-1
- Number of mice having lung tumor nodules (0.008 mg/body i.v.): 1 &&
- Number of lung tumor nodules (0.008 mg/body i.v.): 0 ± 0
- Number of mice having metastatic lesions (0.008 mg/body i.v.): 0 &&
- Number of metastatic lesions per section, Large size (0.008 mg/body i.v.): 0 ± 0!!
- Number of metastatic lesions per section, Small size (0.008 mg/body i.v.): 0 ± 0!
- Number of metastatic lesions per section, Total (0.008 mg/body i.v.): 0 ± 0!!
- number of mice having intrapleural or intraperitoneal metastatic nodules, dose dependence (in words) (0.001, 0.004 and 0.008 mg/body i.v.): decreased as the dose increased
- action of suppressing the lung metastasis of B16-F0 compared with cPA-5 (0.004 and 0.008 mg/body i.v.): stronger than that of cPA-5
